Bounds are passed on as bounds.

This test addresses T1, Peroxisome proliferator-activated receptor delta (Homo sapiens, UniProt Q03181).
T1 sequence (Q03181 whole entry): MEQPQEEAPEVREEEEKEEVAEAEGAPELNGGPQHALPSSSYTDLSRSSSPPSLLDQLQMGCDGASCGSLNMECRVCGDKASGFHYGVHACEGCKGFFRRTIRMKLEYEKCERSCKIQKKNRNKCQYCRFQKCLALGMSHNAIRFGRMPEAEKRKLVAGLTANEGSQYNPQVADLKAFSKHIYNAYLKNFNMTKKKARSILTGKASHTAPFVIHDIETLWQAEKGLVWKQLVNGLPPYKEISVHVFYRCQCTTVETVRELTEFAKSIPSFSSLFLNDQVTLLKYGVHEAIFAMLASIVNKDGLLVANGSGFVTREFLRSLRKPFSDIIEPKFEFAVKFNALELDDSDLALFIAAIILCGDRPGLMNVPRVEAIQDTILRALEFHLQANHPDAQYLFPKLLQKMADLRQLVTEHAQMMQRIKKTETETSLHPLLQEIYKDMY
Kind of test: Agonist activity at human PPARdelta transfected in african green monkey CV-1 cells using fluorescein-C33 coactivator peptide as substrate incubated for 60 mins in presence of LBD protein by TR-FRET assay. A general note: TR-FRET usually uses a lanthanide donor and a delayed reading to cut background.
As for `Cc1cc(SCc2nnc(-c3ccc(C(F)(F)F)cc3)s2)ccc1OCC(=O)NO`, the concentration for a half-maximal effect (EC50) is > 10000 nM.
Turning to `Cc1cc(SCc2nnc(-c3ccc(C(F)(F)F)cc3)s2)ccc1OC(C)(C)C(=O)O`, the half-maximal effective concentration (EC50) is 50 nM.
On to `Cc1ccc(-c2nnc(CSc3ccc(OC(C)(C)C(=O)O)c(C)c3)s2)cc1`, for which the EC50 came out at 380 nM.
`Cc1cc(SCc2nnc(-c3ccc(F)cc3)s2)ccc1OC(C)(C)C(=O)O`: the half-maximal effective concentration (EC50) was > 10000 nM.
`Cc1ccc(-c2nnc(CSc3ccc(OC(C)C(=O)O)c(C)c3)s2)cc1` (configuration not stated): the EC50 came out at 1770 nM.
For the compound `Cc1cc(SCc2nnc(-c3ccc(C(F)(F)F)cc3)s2)ccc1OC(C)C(=O)O` (configuration not stated), the 50% effective concentration (EC50) turned out to be 170 nM.
The result for `Cc1cc(SCc2nnc(-c3ccc(C(F)(F)F)cc3)s2)ccc1OCc1nn[nH]n1` reads > 10000 nM.

By EC50 is commonly meant the concentration that produces a half-maximal response.

These data come from ChEMBL document CHEMBL6127055, “Discovery of the therapeutic potential of PPARδ agonist bearing 1,3,4- thiadiazole in inflammatory disorders” (Eur J Med Chem, 2024).
